# Experimental data reported in PubChem BioAssay (NCI).
#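 Briefly, cells in 96-well plates were exposed to five compound concentrations for 48 h, and endpoints were estimated by linear interpolation. GI50 marks 50% less growth. The concentration for full growth arrest is given as TGI.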
# Tests used:
# Assay in all cases: growth of human tumour cells (NCI), 48 h
# [1] = tested on: BT-549 breast
# [2] = tested on: HOP-62 NSCLC
# [3] = tested on: HOP-92 NSCLC
# [4] = tested on: MALME-3M melanoma
# [5] = tested on: MOLT-4 leukemia
# [6] = tested on: PC-3 prostate
# [7] = tested on: SF-539 CNS
# [8] = tested on: SK-MEL-5 melanoma
# [9] = tested on: T-47D breast
# [10] = tested on: TK-10 renal
SMILES,TGI [1],TGI [2],TGI [3],TGI [4],TGI [5],TGI [6],TGI [7],TGI [8],TGI [9],TGI [10],GI50 [1],GI50 [2],GI50 [4],GI50 [5],GI50 [6],GI50 [7],GI50 [8],GI50 [9],GI50 [10],GI50 [3]
COc1c2c(cc3c1C(O)N1CC[C@]34[C@H]3O[C@H]3[C@H](OC)C[C@@H]14)OCO2 (some centres undefined),> 100 µM,> 100 µM,> 100 µM,> 100 µM,> 100 µM,> 100 µM,> 100 µM,> 100 µM,> 100 µM,> 100 µM,,,,,,,,,,
OCCOCn1cc(Cn2ncc3c(SCc4ccccc4)ncnc32)nn1,> 100 µM,> 100 µM,> 100 µM,> 100 µM,48.3 µM,> 100 µM,> 100 µM,> 100 µM,> 100 µM,> 100 µM,,,,,,,,,,
O=C(CCN1CC2CCC(CC2)C1)c1cccs1,39 µM,45.5 µM,12.6 µM,39.3 µM,18.7 µM,31.1 µM,39.2 µM,> 100 µM,24.1 µM,23.3 µM,,,,,,,,,,
CC1(C)CC(=O)C2=C(C1)NC(SSC1=C(C#N)C(c3ccc(F)cc3)C3=C(CC(C)(C)CC3=O)N1)=C(C#N)C2c1ccc(F)cc1 (centres undefined),55.4 mg/L,> 150 mg/L,,56.6 mg/L,118 mg/L,48 mg/L,43.5 mg/L,44.7 mg/L,15 mg/L,46 mg/L,30 mg/L,108 mg/L,31.8 mg/L,39.1 mg/L,27.1 mg/L,23.4 mg/L,22.9 mg/L,15 mg/L,23.6 mg/L,
O=C(O)C(CSC(c1ccccc1)(c1ccccc1)c1ccccc1)N=Cc1cccs1 (centres undefined),> 27.5 µM,> 100 µM,> 84 µM,> 69.5 µM,> 75.7 µM,> 42.4 µM,9.21 µM,> 24.7 µM,> 100 µM,> 100 µM,,,,,,,,,,
NNC(=O)c1ccccc1Nc1ccccc1C(=O)NN,> 100 µM,> 100 µM,,> 100 µM,> 100 µM,> 100 µM,> 100 µM,> 100 µM,> 100 µM,> 100 µM,,,,,,,,,,
NCCNc1nc(N2CCCC2)c2nc(Cl)c(NCc3ccccc3)nc2n1,4.12 µM,3.64 µM,6.1 µM,3.73 µM,4.48 µM,7.62 µM,3.79 µM,3.27 µM,3.79 µM,3.25 µM,,,,,,,,,,
CCC(C)C1NC(=O)C2CCCN2C(=O)C(CC2CO2)OC(=O)CCNC(=O)C(C)N(C)C(=O)C(C(C)C)N(C)C1=O (centres undefined),> 100 µM,,> 100 µM,0.0641 µM,,> 100 µM,> 100 µM,< 0.0276 µM,> 100 µM,> 100 µM,,,,,,,,,,
O=S(=O)(/N=C(\NO)Nc1ccc(Cl)cc1)c1ccc(S(=O)(=O)c2ccccc2)s1,44.7 µM,82.8 µM,31.3 µM,41.9 µM,35.9 µM,> 100 µM,63.7 µM,24.5 µM,96.3 µM,66.3 µM,,,,,,,,,,
CS(=O)(=O)c1nc(-c2cc3c(c(S(C)(=O)=O)n2)CCCC3)cc2c1CCCC2,> 82.2 µM,> 57.7 µM,,> 100 µM,> 100 µM,> 100 µM,> 100 µM,> 100 µM,> 100 µM,> 100 µM,,,,,,,,,,
O=S(=O)(O)c1cccc2c(N=Nc3c(O)ccc4ccccc34)cccc12,> 100 µM,> 100 µM,> 100 µM,> 100 µM,> 100 µM,> 100 µM,,> 100 µM,> 100 µM,> 100 µM,,,,,,,,,,
C/C(=N\NC(=O)c1cccnc1)c1cccc(/C(C)=N/NC(=O)c2cccnc2)n1,,,59.1 µM,9.81 µM,12 µM,,13.6 µM,7.12 µM,,> 100 µM,,,2.6 µM,2.45 µM,,,2.05 µM,,,7.41 µM
CC(=O)N(C)c1ccc2c(ccc[n+]2[O-])c1[N+](=O)[O-],,> 100 µM,,> 100 µM,> 100 µM,,> 100 µM,> 100 µM,,> 100 µM,,,,,,,,,,
Nc1ccccc1N/C(=C\C(=O)C(Cl)(Cl)Cl)c1ccccc1,91.6 µM,75.1 µM,41.8 µM,37.7 µM,> 100 µM,68.8 µM,36.1 µM,29 µM,91.6 µM,> 100 µM,,,,,,,,,,
C[C@]12CC[C@@H]3c4ccccc4CC[C@H]3[C@@H]1CC[C@@H]2O,,> 100 µM,,> 100 µM,> 100 µM,,> 100 µM,,,> 100 µM,,,,,,,,,,
CC(Sc1ccccc1)C(CO)(CO)[N+](=O)[O-] (centres undefined),,35.5 µM,,38.7 µM,19.3 µM,,31 µM,25.8 µM,,33.7 µM,,,,,,,,,,
C[C@]12CCC(=O)C=C1CC[C@@H]1[C@@H]2[C@@H](O)C[C@@]2(C)[C@H]1CC[C@]2(O)C(=O)CO,> 100 µM,> 100 µM,> 100 µM,> 100 µM,> 100 µM,> 100 µM,> 100 µM,> 100 µM,> 100 µM,> 100 µM,,,,,,,,,,
Clc1ccc(Nc2nc(Cl)c3[nH]cnc3n2)cc1Cl,79.1 µM,52.5 µM,53.4 µM,> 100 µM,61.3 µM,66.2 µM,,52.1 µM,80.4 µM,> 100 µM,,,,,,,,,,
COC(=O)C1C(C)N1C (centres undefined),,> 100 µM,> 100 µM,,> 100 µM,,> 100 µM,> 100 µM,,> 100 µM,,,,,,,,,,
CN1C2CCC1C(C(O)c1ccccc1[N+](=O)[O-])C(=O)C2 (centres undefined),> 100 µM,> 100 µM,,> 100 µM,> 100 µM,> 100 µM,80.4 µM,> 100 µM,87.7 µM,> 100 µM,,,,,,,,,,
